Reference: patent publication US20110117055A1, “Methods of Treating Hepatitis C Virus with Oxoacetamide Compounds” (priority 2009, published 2011)
Entries after “also recorded” stand apart in the source; their conditions may differ. Like-named read-outs stand apart in the source and are kept apart here.

Tests used:
Jc1-luc virus = assay: Luciferase compound activity assay, Jc1-luc virus in Huh7.5.1 cells; assay type: cell-based, HCV genotype-2a; conditions: Hepatitis C virus, Huh-7.5.1
Method: Cell culture. Human hepatoma Huh-7.5.1 cells or Huh7 cells were grown at 37° C. and 5% CO2 in Dulbecco's modification of Eagle's medium supplemented with 2 mM L-glutamine, 1 mM Sodium pyruvate, 1× Non-essential amino acids mix, 100 units/ml penicillin, 100 μg/ml streptomycin, and 10% fetal bovine serum.
Virus plasmids. The chimeric full-length construct pFL-JC1, a GT2a/2a chimera consisting of structural genes from the J6CF isolate and non-structural genes from the JFH1 isolate, has been described previously. See Backes et al., J. Virol. 2010, 84:5775-89; Schaller et al., J. Virol., 2007, 81:4591-603; Koutsoudakis et al., J. Virol. 2006, 80:5308-20; Pietschmann et al., Proc. Natl. Acad. Sci., 2006, 103:7408-13. The firefly luciferase gene has been inserted to pFL-Jc1 to develop a plamid pFL-Jc1-luc for use as a reporter of viral replication. See Amako et al., J. Virol. 2009, 83:9237-46. Specifically, the pFL-JC1-luc construct can be utilized to develop an infectious HCV cell culture system to test novel HCV inhibitors, including entry inhibitors, in vitro using luciferase expression.
Preparation of infectious HCV. Jc1-luc or HCV2a/2aChRluc RNA was in vitro transcribed using T7 RiboMAX™ Express Large Scale RNA Production System (Promega). After RNA clean up (Qiagen RNeasy Mini kit), transfection was performed as previously described.
400 microliters of a Huh-7.5.1 or Huh7 cell suspension (10^7 cells/ml) was placed in a 0.4-cm cuvette with 10 μg of Jc1-luc or HCV2a/2aChRluc RNA and electroporated (Bio-Rad Gene Pulser System) using a single square wave at 260 V and 25 ms pulse length. The cells were plated in 15-cm tissue culture dishes (Corning) and supernatant was harvested and concentrated using a centrifugal filter (Amicon 100K, Millipore).
Luciferase compound activity assay. Cell culture and luciferase compound assays were performed as previously described. See Wyles et al., J. Virol. 2007, 81:3005-8; Wyles et al., Antimicrob Agents Chemother. 2009, 53:2660-2; Grünberger et al., J. Infect. Dis. 2008, 197:42-5; Wyles et al., Antimicrob Agents Chemother, 2008, 52:1862-4. Briefly, Huh7.5.1 cells were seeded into 96-well plates at a density of 10,000 cells per well in 100 μl medium. After incubating overnight for attachment, Jc1-luc virus at an MOI 0.01 was added to wells with or without compounds at the specified concentrations. All conditions were run in triplicate. After 24 hours, medium was aspirated and replaced with 100 μl of complete medium containing an identical concentration of compound(s) followed by additional 48 hour incubation. The luciferase assay (Bright-Glo; Promega) was carried out according to the manufacturer's instructions. Luciferase activity was determined using a microplate luminometer (Veritas microplate luminometer; Turner Biosystems). […]

[1] = Cytotoxicity of anti-HCV compounds (CC50, Table 4); conditions: human, Huh7.5.1 cells
HCV2aChLuc virus = assay: In vitro HCVcc entry assay: HCV2aChLuc virus infection of Huh7 cells, Renilla luciferase read-out; assay type: cell-based, HCV genotype 2a; conditions: for IC50: Hepatitis C virus
[2] = tested on: HCV genotype 1b subgenomic replicon; assay: HCV replicon assay (HCV1b replicon cells, NS5A ELISA); assay type: cell-based; conditions: 3 days
Method: Alternatively, Hut1b cells (Huh7 cells stably replicating HCV genotype 1b subgenomic replicon) were treated with serial dilutions of the test compound for 72 hours. Replication efficiency was monitored by ELISA assay using anti-HCV NS5A monoclonal antibody (Virogen).
Increasing amounts of compound were inoculated onto HCV1b replicon cells and incubated for 3 days. Following incubation, HCV replication was monitored with NS5A protein expression by ELISA.

[3] = tested on: Bovine viral diarrhea virus (BVDV); assay: BVDV plaque-forming assay in MDBK cells; assay type: cell-based; conditions: even at 1 μM
Method: Bovine viral diarrhea virus (BVDV) is a closely related virus to HCV, belonging to the same Family, Flaviviridae. To validate the specificity of antiviral activity, BVDV infection was done with MDBK cells in the presence of compounds provided herein. MDBK cells (70 to 80% confluent) were infected with a diluted virus. Following 1 h of adsorption at 37° C., cells were washed once with DMEM, overlaid with 1.5% low-melting-point (LMP) agarose (Gibco-BRL) in MEM containing 5% HS, and incubated at 37° C. To assay for plaque-forming virus, after 3 days monolayers were fixed with 3.7% formaldehyde for 2 h at room temperature, the agarose plugs were removed, and the monolayers were stained with crystal violet.

HCV1a/2a chimeric virus = assay: HCV entry assay with HCV1a/2a chimeric virus; assay type: cell-based, HCV genotype 1a
Excerpt: Since HCV genotype 1 is the most prevalent genotype among the variants of HCV, we constructed an HCV1a/2a chimeric infectious clone with two cell-culture adaptive mutations introduced. Sequences for the structural proteins (including C, E1, and E2), p7, and NS2 were derived from HCV genotype 1a H77 strain. The rest of nonstructural proteins (NS3 to NS5B) and 3′ NTR were derived from HCV genotype 2a JFH strain. 5′NTR was originated from HCV2aJ6 (FIG. 7). […] Therefore, both HCV1a/2aCh virus and HCV1a/2aChLuc virus with Y361H and Q1251L mutations were successively produced in Huh7 cells and used for HCV entry assay.

HCV [4] = assay: Combination of viral entry inhibitor with IFN-α, HCVcc infection system, luciferase assay; assay type: cell-based; conditions: Huh7 cells, 72 hrs
Method: The current standard of care for the treatment of chronic hepatitis C is the combination of pegylated IFN-α (interferon-alpha) and ribavirin. […] Huh7 cells were incubated with various concentrations of Compound 1 or interferon alone, or combinations of both for 72 hrs, and the anti-HCV activity was measured by luciferase assays. The same was experiment was performed for Compound 5.

[5] = tested on: HCV1a chimeric virus and 2a chimeric virus; assay: Combination of viral entry inhibitor with ribavirin; assay type: cell-based, HCV; conditions: ribavirin 15 μM
Method: Varying amounts of each compound were coincubated with a high concentration of ribavirin (15 μM).

HCV [6] = assay: Combination of viral entry inhibitor with HCV protease inhibitor VX-950; assay type: cell-based; conditions: fixed ratio based on EC50
Method: Additional combination studies of Compound 1 and Compound 5 with the HCV NS3 protease inhibitor VX-950 were conducted. Compound 1 and Compound 5 were tested singly and in combination with VX-950. The ratio of the two compounds, based on the compound's EC50, remained fixed across the dosing range. The potential cytotoxicity of individual compounds was assessed with a luminescent ATP-based cell viability assay (Cell Titer-Glo; Promega). Cell culture and luciferase compound assays were performed as previously described in Example 3.
Compound interactions were quantified by the approach described by Chou and Talalay, relying on the median effect principle and the multiple-drug effect equation. […] Isobolograms were generated for each combination tested and were used to determine the additivity, synergism or antagonism of inhibitor combinations. Combination indices (CI) were determined with Calcusyn (Biosoft) for each experiment at the EC50, EC75, and EC90 of the combination. By convention, a CI of <0.9 was considered synergistic, a CI of ≧0.9 or ≦1.1 was considered additive, and a CI of >1.1 was deemed antagonistic. […] Combination indices (CI) were determined with Calcusyn (Biosoft) for each experiment at the EC50, EC75, and EC90 of the combination. By convention, a CI of <0.9 was considered synergistic, a CI of ≧0.9 or ≦1.1 was considered additive, and a CI of >1.1 was deemed antagonistic.
HCV2aChLuc (NS3:A156S) = assay: Infectivity of protease mutant virus versus wild type in the presence of compounds; assay type: cell-based, HCV genotype 2a; conditions: HCV2aChLuc (NS3:A156S) vs wild type HCV2aChLuc
Excerpt: Therefore, we introduced A156S mutation in the backbone of HCV2aChLuc genome and investigated the infectivity of the mutant virus in the presence of compounds.

[7] = tested on: HCV2aCh (E2:G451R) mutant virus; assay: E2:G451R mutant virus infectivity, luciferase assay; assay type: cell-based, HCV genotype 2a; conditions: E2:G451R vs parental
Excerpt: Since SR-B1 is also known to be one of the essential cellular receptors required for HCV entry, we were interested to know if Compounds 1 and 5 inhibits HCV entry via SR-B1. HCV E2 protein interaction with SR-B1 is believed to occur via hypervariable region 1 located within the N-terminal region of the E2 glycoprotein. Zhong and colleagues reported that a glycine-to-arginine mutation at position 451 (G451R) in E2 promoted JFH-1 infectivity (J. Viol. 2006, 80:11082). […] We introduced the E2:G451R mutation into the backbone of HCV2aCh (FIG. 13a) to test whether this mutation may alter the inhibitory effect of Compounds 1 and 5 on HCV entry mediated by SR-B1.

HCV2a/2aChRluc virus = assay: Compound 5 with ribavirin or VX950 in the HCV2a/2aChRluc system; assay type: cell-based, HCV genotype 2a; conditions: ribavirin alone, 15 μM
Method: 100 μl of serially diluted compound solutions (100, 30, 10, 3, 1, 0.3, and 0.1 nM) was inoculated onto Huh-7 cells in a 96-well plate. Subsequently, 100 ul (TCID50, ˜0.6) of HCV2a/2aChRluc virus was added onto the cells. After co-incubation for 72 hrs, Renilla luciferase expression was determined (Renilla Luciferase Assay, Promega) and reported as relative light units (RLU).
Data analysis. Determinations of compound interactions were quantified based on the median-effect principle described by Chou and Talalay. Chou T., Talalay P., Adv. Enzyme. Regul., 1984, 22:27-55. Combination indices (CIs) were determined using Calcusyn (Biosoft) for each experiment at the EC50, EC75, and EC90 levels. Five replicates per condition were evaluated. A CI<0.9 was considered synergistic, a CI≧0.9 and ≦[…] was considered additive, and a CI>1.1 was deemed antagonistic.

[8] = Huh-7, read-out: Activity class (IC50), tested according to the method of Example 3

C[C@@]1(O)[C@H](O)[C@@H](CO)O[C@H]1n1cnc2c(N)ncnc21 [2′-C-methyladenosine, reference compound]
EC50 (Jc1-luc virus): 252 ± 33.5 nM
CC50 [1]: > 100000 nM

COc1ccc2c(O[C@@H]3C[C@H]4C(=O)N[C@]5(C(=O)O)C[C@H]5/C=C\CCCCC[C@H](NC(=O)OC5CCCC5)C(=O)N4C3)cc(-c3csc(NC(C)C)n3)nc2c1 [BILN2061, reference compound]
EC50 (Jc1-luc virus): 492 ± 56.7 nM
CC50 [1]: 35000 nM

COc1ccc(C(C)(C)C)cc1NC(=O)C(=O)c1ccc(OCCN2CCOCC2)c2ccccc12 [Compound 1, N-(5-tert-butyl-2-methoxyphenyl)-2-(4-(2-morpholinoethoxy)naphthalen-1-yl)-2-oxoacetamide]
IC50 (HCV2aChLuc virus; Huh-7, 72 h, read-out: observed IC50, Huh7 cells co-incubated with HCV2aChRluc virus and compound for 3 days, repeated assays (n>30)): 0.2 to 2 nM
IC50 (HCV2aChLuc virus; [8]): < 5 nM
inhibitory effect on HCV2aChLuc viral entry (HCV2aChLuc virus; Huh7 cells, 3 days): dose-dependent inhibitory effect; also recorded: dose-dependent inhibition
effect on HCV replication (NS5A protein expression by ELISA) [2]: did not measurably inhibit; also recorded: no measurable effect
inhibitory effect on BVDV infection [3]: no measurable inhibitory effect
inhibition of HCV1a chimeric virus (HCV1a/2a chimeric virus; compared with HCV2a chimeric virus): inhibited
effect of combination with IFN-α on inhibition of HCV infection in cell culture (HCV [4]): additive to moderate synergistic effect
effect of combination with ribavirin [5]: no antagonistic effect
effect of combination with VX-950 (HCV [6]): additive to slightly synergistic effects
resistance of NS3:A156S mutant virus versus wild type (inhibition of infectivity) (HCV2aChLuc (NS3:A156S)): no significant difference
sensitivity of E2 mutant virus relative to parental virus, luciferase assay for viral infectivity [7]: greater resistance

COc1c(NC(=O)C(=O)c2ccc(-c3ccc(N(C)C)nc3)c3ccccc23)cc(C(C)(C)C)cc1NS(C)(=O)=O [Compound 125]
IC50 (HCV2aChLuc virus; [8]): > 500 nM

COc1ccc(C(C)(C)C)cc1NC(=O)C(=O)c1ccc(-c2ccc(N(C)C)nc2)c2ccccc12 [Compound 126]
IC50 (HCV2aChLuc virus; [8]): > 500 nM

COc1ccc(C(C)(C)C)cc1NC(=O)C(=O)c1ccc(-c2cccnc2)c2ccccc12 [Compound 127]
IC50 (HCV2aChLuc virus; [8]): > 500 nM

COc1c(NC(=O)C(=O)c2ccc(Br)c3ccccc23)cc(C(C)(C)C)cc1NS(C)(=O)=O [Compound 128]
IC50 (HCV2aChLuc virus; [8]): > 500 nM

CNc1ccc(-c2ccc(C(=O)C(=O)Nc3cc(C(C)(C)C)cc(C(=O)NC4CC4)c3OC)c3ccccc23)cn1 [Compound 130]
IC50 (HCV2aChLuc virus; [8]): > 500 nM

CNc1ccc(-c2ccc(C(=O)C(=O)Nc3cc(C(C)(C)C)cc(NS(C)(=O)=O)c3OC)c3ccccc23)cn1 [Compound 131]
IC50 (HCV2aChLuc virus; [8]): > 500 nM

COc1c(N)cc(C(C)(C)C)cc1NC(=O)C(=O)c1cccc2ccccc12 [Compound 132]
IC50 (HCV2aChLuc virus; [8]): > 500 nM

COc1ccc(C(C)(C)C)cc1NC(=O)C(=O)c1ccc(Br)c2ccccc12 [Compound 134]
IC50 (HCV2aChLuc virus; [8]): 5 to 500 nM

COc1c(NC(=O)C(=O)c2ccc(Br)c3ccccc23)cc(C(C)(C)C)cc1C(=O)NC1CC1 [Compound 135]
IC50 (HCV2aChLuc virus; [8]): < 5 nM

CNc1ccc(-c2ccc(C(=O)C(=O)Nc3cc(C(C)(C)C)ccc3OC)c3ccccc23)cn1 [Compound 136]
IC50 (HCV2aChLuc virus; [8]): < 5 nM

CNc1ccc(-c2ccc(C(=O)C(=O)Nc3cc(C(C)(C)C)cc(C(N)=O)c3OC)c3ccccc23)cn1 [Compound 137]
IC50 (HCV2aChLuc virus; [8]): < 5 nM

CCNC(=O)c1cc(C(C)(C)C)cc(NC(=O)C(=O)c2ccc(-c3ccc(NC)nc3)c3ccccc23)c1OC [Compound 138]
IC50 (HCV2aChLuc virus; [8]): < 5 nM

CCC[C@H](NC(=O)[C@@H]1[C@H]2CCC[C@H]2CN1C(=O)[C@@H](NC(=O)[C@@H](NC(=O)c1cnccn1)C1CCCCC1)C(C)(C)C)C(=O)C(=O)NC1CC1 [VX-950, reference compound]
resistance of NS3:A156S mutant virus versus wild type (inhibition of infectivity) (HCV2aChLuc (NS3:A156S)): high level resistance; also recorded: resistant
resistance of NS3:A156S mutant virus versus wild type (inhibition of infectivity) (HCV2aChLuc (NS3:A156S); listed as VX950): highly resistant

NC(=O)c1ncn([C@@H]2O[C@H](CO)[C@@H](O)[C@H]2O)n1 [ribavirin, reference compound]
inhibitory effect on infectivity of 2a chimeric virus (HCV2aChLuc virus; ribavirin alone, 15 μM): did not have significant inhibitory effect
inhibitory effect on infectivity of HCV1a chimeric virus (HCV1a/2a chimeric virus; ribavirin alone, 15 μM): did not have significant inhibitory effect
inhibitory effect on the infectivity of 2a chimeric virus (HCV2a/2aChRluc virus): did not have significant inhibitory effect
